US10676468B2, “N-(3-heteroarylaryl)-4-arylarylcarboxamides and analogs as hedgehog pathway inhibitors and use thereof” (IMPACT Therapeutics, Inc., priority 2012, dated 2020)

Assays:
Assay type in all cases: cell-based, mouse
[1] = test system: Hedgehog Signaling Pathway; assay: SAG-induced differentiation of C3H10T1/2 cells into osteoblastic cells, intracellular alkaline phosphatase activity; conditions: Mus musculus, C3H 10T1/2, 120 h, 1 μM SAG, 5 days, alkaline phosphatase activity (OD405), read-out: IC50 values of compounds that inhibit Hh pathway
Procedure, shortened: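 Mouse C3H10T1/2 cells were induced with SAG and exposed to compound (10 μM to 1 nM) for 5 days at 37 °C. Cells were lysed in 0.2% Triton, and alkaline phosphatase activity was read as OD405 over 30 min at 37 °C in pH 9.8 substrate buffer. IC50 came from a non-linear fit of background-subtracted OD405 against log concentration.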

[2] = test system: Hedgehog Signaling Pathway; assay: SHH-induced differentiation of C3H10T1/2 cells into osteoblastic cells, intracellular alkaline phosphatase activity; conditions: 10 nM SHH-N, 5 days, alkaline phosphatase activity (OD405), read-out: IC50 values of compounds that inhibit Hh pathway
Procedure, shortened: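 Hedgehog pathway inhibition was taken as loss of SHH-driven osteoblastic differentiation. Test compound (10 nM–10 μM) plus SHH-N (10 nM) was applied to C3H10T1/2 cells for 5 days, then lysate phosphatase turnover was measured as the 30-min OD405 change at 37 °C. IC50 was fitted from activity versus log dose.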

[3] = test system: Hedgehog Signaling Pathway; assay: Gli-Luc reporter gene cell assay in C3H10T1/2/Gli-Luc cells stimulated with Shh; conditions: Mus musculus, C3H 10T1/2, 24 h, 30 nM Shh, luciferase activity (RLU), read-out: IC50 values of compounds that inhibit Hh pathway
Procedure, shortened: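 IC50 from nonlinear fit of luciferase RLU versus log compound concentration. Stably transfected C3H10T1/2/Gli-Luc cells received a 7-point compound series alongside Shh (30 nM in the added medium) for 24 h at 37 °C in DMEM/10% FBS, then were lysed for luciferase readout.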

[4] = Mus musculus, C3H 10T1/2, 120 h

| IC50 [1] [nM] | IC50 [2, 4] [nM] | IC50 [3] [nM] | IC50 [2] [nM] | SMILES |
| --- | --- | --- | --- | --- |
| 111 | 13 | 3.3 | – | C[C@@H]1CN(c2ccc(C(=O)Nc3ccc(Cl)c(-c4nc5ccccc5[nH]4)c3)c(F)c2)C[C@H](C)N1C [Example 95, N-(3-(1H-benzo[d]imidazol-2-yl)-4-chlorophenyl)-2-fluoro-4-((3S,5R)-3,4,5-trimethylpiperazin-1-yl)benzamide] |
| 106 | 5 | 3.3 | – | C[C@@H]1CN(c2ccc(C(=O)Nc3ccc(Cl)c(-c4nc5ccc(Cl)cc5[nH]4)c3)c(Cl)c2)C[C@H](C)N1C [Example 96, N-(3-(6-chloro-1H-benzo[d]imidazol-2-yl)-4-chlorophenyl)-2-chloro-4-((3S,5R)-3,4,5-trimethylpiperazin-1-yl)benzamide] |
| 32 | 0.59 | 1.7 | – | Cc1cc(N2C[C@@H](C)N(C)[C@@H](C)C2)ccc1C(=O)Nc1ccc(Cl)c(-c2nc3ccc(Cl)cc3[nH]2)c1 [Example 97, N-(3-(6-chloro-1H-benzo[d]imidazol-2-yl)-4-chlorophenyl)-2-methyl-4-((3S,5R)-3,4,5-trimethylpiperazin-1-yl)benzamide] |
| 24 | 1.4 | 0.96 | – | Cc1cc(N2C[C@@H](C)N(C)[C@@H](C)C2)ccc1C(=O)Nc1ccc(Cl)c(-c2nc3ccc(F)cc3[nH]2)c1 [Example 98, N-(3-(6-fluoro-1H-benzo[d]imidazol-2-yl)-4-chlorophenyl)-2-methyl-4-((3S,5R)-3,4,5-trimethylpiperazin-1-yl)benzamide] |
| 81 | – | 1.6 | 2.6 | C[C@@H]1CN(c2ccc(C(=O)Nc3ccc(Cl)c(-c4nc5ccc(F)cc5[nH]4)c3)c(Cl)c2)C[C@H](C)N1C [Example 99, N-(3-(6-fluoro-1H-benzo[d]imidazol-2-yl)-4-chlorophenyl)-2-chloro-4-((3S,5R)-3,4,5-trimethylpiperazin-1-yl)benzamide] |
| 33 | 2.3 | 0.58 | – | CCN1[C@H](C)CN(c2ccc(C(=O)Nc3ccc(Cl)c(-c4nc5ccccc5[nH]4)c3)c(C)c2)C[C@@H]1C [Example 100, N-(3-(1H-benzo[d]imidazol-2-yl)-4-chlorophenyl)-2-methyl-4-((3S,5R)-4-ethyl-3,5-dimethylpiperazin-1-yl)benzamide] |
| 46 | 0.64 | 0.67 | – | Cc1cc(N2C[C@@H](C)N(C(C)C)[C@@H](C)C2)ccc1C(=O)Nc1ccc(Cl)c(-c2nc3ccccc3[nH]2)c1 [Example 101, N-(3-(1H-benzo[d]imidazol-2-yl)-4-chlorophenyl)-2-methyl-4-((3S,5R)-4-isopropyl-3,5-dimethylpiperazin-1-yl)benzamide] |
| 449 | 40 | 9.4 | – | CN1CCN(c2ccc(C(=O)Nc3ccc(Cl)c(-c4nc5ccccc5[nH]4)c3)cn2)CC1 [Example 103, N-(3-(1H-benzo[d]imidazol-2-yl)-4-chlorophenyl)-6-(4-methylpiperazin-1-yl)nicotinamide] |
| 58 | 0.61 | 0.94 | – | C[C@@H]1CN(c2ccc(C(=O)Nc3ccc(Cl)c(-c4nc5ccccc5[nH]4)c3)cn2)C[C@H](C)N1C [Example 104, N-(3-(1H-benzo[d]imidazol-2-yl)-4-chlorophenyl)-6-((3S,5R)-3,4,5-trimethylpiperazin-1-yl)nicotinamide] |
| 58 | 2.2 | 1.1 | – | CCN1[C@H](C)CN(c2ccc(C(=O)Nc3ccc(Cl)c(-c4nc5ccccc5[nH]4)c3)cn2)C[C@@H]1C [Example 105, N-(3-(1H-benzo[d]imidazol-2-yl)-4-chlorophenyl)-6-((3S,5R)-4-ethyl-3,5-dimethylpiperazin-1-yl)nicotinamide] |
| 47 | 2.3 | 0.75 | – | Cc1cc(N2C[C@@H](C)N(C)[C@@H](C)C2)ncc1C(=O)Nc1ccc(Cl)c(-c2nc3ccccc3[nH]2)c1 [Example 107, N-(3-(1H-benzo[d]imidazol-2-yl)-4-chlorophenyl)-4-methyl-6-((3S,5R)-3,4,5-trimethylpiperazin-1-yl)nicotinamide] |
| 96 | 6.4 | 3.8 | – | Cc1cc(N2C[C@@H](C)N[C@@H](C)C2)ccc1C(=O)Nc1ccc(Cl)c(-c2nc3ccccc3[nH]2)c1 [Example 109, N-(3-(1H-benzo[d]imidazol-2-yl)-4-chlorophenyl)-2-methyl-4-((3S,5R)-3,5-dimethylpiperazin-1-yl)benzamide] |
| 28 | 0.66 | 0.57 | – | C[C@@H]1CN(c2ccc(C(=O)Nc3ccc(Cl)c(-c4nc5ccccc5n4C)c3)c(Cl)c2)C[C@H](C)N1C [Example 110, N-(3-(1-methyl-1H-benzo[d]imidazol-2-yl)-4-chlorophenyl)-2-chloro-4-((3S,5R)-3,4,5-trimethylpiperazin-1-yl)benzamide] |
| 68 | 0.94 | 2.2 | – | Cc1ccc2nc(-c3cc(NC(=O)c4ccc(N5C[C@@H](C)N(C)[C@@H](C)C5)cc4Cl)ccc3Cl)[nH]c2c1 [Example 111, N-(3-(6-methyl-1H-benzo[d]imidazol-2-yl)-4-chlorophenyl)-2-chloro-4-((3S,5R)-3,4,5-trimethylpiperazin-1-yl)benzamide] |
| 83 | 8.6 | 5.5 | – | Cc1ccc2nc(-c3cc(NC(=O)c4ccc(N5C[C@@H](C)N(C)[C@@H](C)C5)cc4C)ccc3Cl)[nH]c2c1 [Example 112, N-(3-(6-methyl-1H-benzo[d]imidazol-2-yl)-4-chlorophenyl)-2-methyl-4-((3S,5R)-3,4,5-trimethylpiperazin-1-yl)benzamide] |
| 1040 | > 10000 | 27 | – | Cc1ccc(NC(=O)c2ccc(N3C[C@@H](C)N(C)[C@@H](C)C3)cc2Cl)cc1-c1nc2ccc(Cl)cc2[nH]1 [Example 113, N-(3-(6-chloro-1H-benzo[d]imidazol-2-yl)-4-methylphenyl)-2-chloro-4-((3S,5R)-3,4,5-trimethylpiperazin-1-yl)benzamide] |
| 77 | 9 | 0.85 | – | CCN1[C@H](C)CN(c2ccc(C(=O)Nc3ccc(Cl)c(-c4nc5ccc(F)cc5[nH]4)c3)c(Cl)c2)C[C@@H]1C [Example 114, N-(3-(6-fluoro-1H-benzo[d]imidazol-2-yl)-4-chlorophenyl)-2-chloro-4-((3S,5R)-4-ethyl-3,5-dimethylpiperazin-1-yl)benzamide] |
| 145 | 31 | 3.4 | – | Cc1ccc(NC(=O)c2ccc(N3C[C@@H](C)N(C)[C@@H](C)C3)cc2Cl)cc1-c1nc2ccc(F)cc2[nH]1 [Example 115, N-(3-(6-fluoro-1H-benzo[d]imidazol-2-yl)-4-methylphenyl)-2-chloro-4-((3S,5R)-3,4,5-trimethylpiperazin-1-yl)benzamide] |
| 68 | 2.1 | 1.4 | – | Cc1nc(N2C[C@@H](C)N(C)[C@@H](C)C2)ccc1C(=O)Nc1ccc(Cl)c(-c2nc3ccccc3[nH]2)c1 [Example 116, N-(3-(1H-benzo[d]imidazol-2-yl)-4-chlorophenyl)-2-methyl-6-((3S,5R)-3,4,5-trimethylpiperazin-1-yl)nicotinamide] |
| 27 | 4.6 | 1.2 | – | C[C@@H]1CN(c2ccc(C(=O)Nc3ccc(Cl)c(-c4nc5ccccc5[nH]4)c3)c(Cl)n2)C[C@H](C)N1C [Example 117, N-(3-(1H-benzo[d]imidazol-2-yl)-4-chlorophenyl)-2-chloro-6-((3S,5R)-3,4,5-trimethylpiperazin-1-yl)nicotinamide] |
| 260 | 13 | 5.1 | – | C[C@@H]1CN(c2ccc(C(=O)Nc3ccc(Cl)c(-c4nc5ccccc5[nH]4)c3)cc2)C[C@H](C)N1C [Example 118, N-(3-(1H-benzo[d]imidazol-2-yl)-4-chlorophenyl)-4-((3S,5R)-3,4,5-trimethylpiperazin-1-yl)benzamide] |
| 39 | 0.76 | 0.45 | – | C[C@@H]1CN(c2ccc(C(=O)Nc3ccc(Cl)c(-c4nc5ccccc5[nH]4)c3)c(C(F)(F)F)c2)C[C@H](C)N1C [Example 119, N-(3-(1H-benzo[d]imidazol-2-yl)-4-chlorophenyl)-2-(trifluoromethyl)-4-((3S,5R)-3,4,5-trimethylpiperazin-1-yl)benzamide] |
| 57 | 7.4 | 1.7 | – | C[C@@H]1CN(c2ccc(C(=O)Nc3ccc(Cl)c(-c4nc5ccccc5[nH]4)c3)cc2Cl)C[C@H](C)N1C [Example 120, N-(3-(1H-benzo[d]imidazol-2-yl)-4-chlorophenyl)-3-chloro-4-((3S,5R)-3,4,5-trimethylpiperazin-1-yl)benzamide] |
| 29 | 23 | 1.6 | – | Cc1cc(C(=O)Nc2ccc(Cl)c(-c3nc4ccccc4[nH]3)c2)ccc1N1C[C@@H](C)N(C)[C@@H](C)C1 [Example 121, N-(3-(1H-benzo[d]imidazol-2-yl)-4-chlorophenyl)-3-methyl-4-((3S,5R)-3,4,5-trimethylpiperazin-1-yl)benzamide] |
